This note sets out measurements from ChEMBL document CHEMBL3046218, “Characterization of sensitivity of Rhizoctonia solani, causing rice sheath blight, to mepronil and boscalid” (Crop Prot, 2009).

Broadly, the EC50 is the midpoint of the concentration-response curve. Lower therefore signals an effect from little substance.

In brackets after ≈: the same amount, converted by molar mass.

The test system of assay [1] is Rhizoctonia solani. Description: Antifungal activity against mepronil-resistant Rhizoctonia solani JSR3 after 2 days. In kind it is functional, organism-based. Particulars: JSR3, 48 h.
For assay [2], the system named is Rhizoctonia solani. Briefly: Antifungal activity against mepronil-resistant Rhizoctonia solani JSR2 after 2 days. The class given is functional, organism-based. Particulars: JSR2, 48 h.
Assay [3] has as its system Rhizoctonia solani. Briefly: Antifungal activity against mepronil-resistant Rhizoctonia solani JSR1 after 2 days. The class given is functional, organism-based. The conditions noted are these: JSR1, 48 h.
In assay [4] the test system is Rhizoctonia solani. Description: Antifungal activity against mepronil-sensitive wild type Rhizoctonia solani JS7 after 2 days. The class given is functional, organism-based. The conditions noted are these: JS7, 48 h.
The subject of assay [5] is Rhizoctonia solani. Description: Antifungal activity against mepronil-resistant Rhizoctonia solani ZJR2 after 2 days. In kind it is functional, organism-based. Particulars: ZJR2, 48 h.
In assay [6] the test system is Rhizoctonia solani. Briefly: Antifungal activity against mepronil-resistant Rhizoctonia solani ZJR3 after 2 days. The class given is functional, organism-based. Particulars: ZJR3, 48 h.
For assay [7], the system named is Rhizoctonia solani. Description: Antifungal activity against mepronil-resistant Rhizoctonia solani ZJR1 after 2 days. In kind it is functional, organism-based. The conditions noted are these: ZJR1, 48 h.
For assay [8], the system named is Rhizoctonia solani. Description: Antifungal activity against mepronil-sensitive wild type Rhizoctonia solani ZJ-1 after 2 days. The class given is functional, organism-based. Particulars: ZJ-1, 48 h.
For assay [9], the system named is Rhizoctonia solani. Description: Resistant factor, ratio of EC50 for mepronil-resistant Rhizoctonia solani ZJR1 to EC50 for mepronil-sensitive wild type Rhizoctonia solani ZJ-1. In kind it is functional.
The subject of assay [10] is Rhizoctonia solani. Description: Resistant factor, ratio of EC50 for mepronil-resistant Rhizoctonia solani JSR3 to EC50 for mepronil-sensitive wild type Rhizoctonia solani JS7. In kind it is functional.
For assay [11], the system named is Rhizoctonia solani. Description: Resistant factor, ratio of EC50 for mepronil-resistant Rhizoctonia solani JSR2 to EC50 for mepronil-sensitive wild type Rhizoctonia solani JS7. The class given is functional.
Assay [12] relates to Rhizoctonia solani. Briefly: Resistant factor, ratio of EC50 for mepronil-resistant Rhizoctonia solani JSR1 to EC50 for mepronil-sensitive wild type Rhizoctonia solani JS7. The class given is functional.
Assay [13] concerns Rhizoctonia solani. Description: Resistant factor, ratio of EC50 for mepronil-resistant Rhizoctonia solani ZJR3 to EC50 for mepronil-sensitive wild type Rhizoctonia solani ZJ-1. The class given is functional.
Assay [14] has as its system Rhizoctonia solani. Description: Resistant factor, ratio of EC50 for mepronil-resistant Rhizoctonia solani ZJR2 to EC50 for mepronil-sensitive wild type Rhizoctonia solani ZJ-1. The class given is functional.

For `CO/N=C(/C(=O)OC)c1ccccc1COc1ccccc1C` [KRESOXIM-METHYL], the EC50 in [1] came out at 0.16 µg/mL (≈ 0.511 µM); in assay [2] it was 0.14 µg/mL (≈ 0.447 µM); in [3], 0.2 µg/mL (≈ 0.638 µM); in [4] it was 0.16 µg/mL (≈ 0.511 µM); in [5] it was 0.29 µg/mL (≈ 0.925 µM); in assay [6] it was 0.37 µg/mL (≈ 1.18 µM). The EC50 in [7] is 0.33 µg/mL (≈ 1.05 µM); in assay [8], 0.34 µg/mL (≈ 1.09 µM).

For `CO/C=C(/C(=O)OC)c1ccccc1Oc1cc(Oc2ccccc2C#N)ncn1` [AZOXYSTROBIN], the EC50 in assay [1] stood at 0.19 µg/mL (≈ 0.471 µM); in assay [2] it was 0.18 µg/mL (≈ 0.446 µM); in [3], 0.17 µg/mL (≈ 0.421 µM); in assay [4], 0.19 µg/mL (≈ 0.471 µM); in [5], 0.34 µg/mL (≈ 0.843 µM); in assay [6] it was 0.32 µg/mL (≈ 0.793 µM). For the same compound, the concentration giving a half-maximal response (EC50) in [7] and in assay [8] was 0.32 µg/mL (≈ 0.793 µM) in each case.

Regarding `Cc1ccccc1C(=O)Nc1cccc(OC(C)C)c1` [MEPRONIL], the “Ratio EC50” value was found to be 116.7 in assay [9]; 209.8 in assay [10]; 144.5 in assay [11]; 87.3 in assay [12]; 179.5 in assay [13]; 109.2 in assay [14]. The EC50 in assay [1] turned out to be 20.6 µg/mL (≈ 76.3 µM); in assay [2] it was 14.2 µg/mL (≈ 52.6 µM); in assay [3] it was 8.56 µg/mL (≈ 31.8 µM); in [4] it was 0.098 µg/mL (≈ 0.364 µM); in [5], 12.7 µg/mL (≈ 47 µM); in assay [6], 20.8 µg/mL (≈ 77.3 µM). In [7], this compound registered a 50% effective concentration (EC50) of 13.5 µg/mL (≈ 50.3 µM).

`OCC1=C[C@H](N[C@H]2C[C@H](CO)[C@@H](O[C@@H]3O[C@H](CO)[C@@H](O)[C@H](O)[C@H]3O)[C@H](O)[C@H]2O)[C@H](O)[C@@H](O)[C@@H]1O` [VALIDAMYCIN]: the concentration for a half-maximal effect (EC50) in assay [1] came out at 0.14 µg/mL (≈ 0.281 µM); in assay [2] it was 0.18 µg/mL (≈ 0.362 µM); in assay [3] it was 0.16 µg/mL (≈ 0.322 µM); in [4], 0.18 µg/mL (≈ 0.362 µM); in [5], 0.09 µg/mL (≈ 0.181 µM); in assay [6], 0.1 µg/mL (≈ 0.201 µM). In addition, the figures for the EC50 in assay [7] and in assay [8] were 0.08 µg/mL (≈ 0.161 µM) and 0.09 µg/mL (≈ 0.181 µM), respectively.

On to `O=C(Nc1ccccc1-c1ccc(Cl)cc1)c1cccnc1Cl` [BOSCALID], for which the EC50 in [1] was 2.08 µg/mL (≈ 6.06 µM); in assay [2], 2.13 µg/mL (≈ 6.21 µM); in assay [3], 2.26 µg/mL (≈ 6.58 µM); in [4], 2.15 µg/mL (≈ 6.26 µM); in assay [5], 2.15 µg/mL (≈ 6.26 µM); in assay [6], 1.93 µg/mL (≈ 5.62 µM). Further, the values for the concentration for a half-maximal effect (EC50) in assay [7] and in assay [8] were 1.87 µg/mL (≈ 5.45 µM) and 1.98 µg/mL (≈ 5.77 µM), respectively.
